In USRE37886E1, “1-(1,2-Disubstituted piperidinyl)-4-substituted piperazine derivatives” (Janssen Pharmaceuticals, N.V., priority 1995, dated 2002):
pIC50: −log10 of the molar value.

What was measured:
[1] = tested on: substance P induced plasma extravasation; test: Antagonism of substance P induced plasma extravasation in guinea-pigs; assay type: in vivo; conditions: lowest active dose, female guinea-pigs; for LAD nose: compound 1 hour prior to substance P (2 mg/kg, femoral artery), blue colouring of nose 10 minutes after challenge; for LAD conjunctiva / LAD forepaws / LAD trachea / LAD urinary bladder: compound 1 hour prior to substance P; for LAD conjunctiva: blue colouring of conjunctiva 10 minutes after challenge; for LAD forepaws: blue colouring of forepaws 10 minutes after challenge; for LAD trachea: blue colouring of trachea 30 minutes after challenge; for LAD urinary bladder: blue colouring of urinary bladder 30 minutes after challenge
Procedure, shortened: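 Female guinea-pigs dosed with compound 1 hour before femoral-artery substance P (2 mg/kg) plus Evans Blue (30 mg/kg). Blue colouring of nose, forepaws and conjunctiva scored at 10 minutes, trachea and bladder at 30 minutes; value is lowest active dose (mg/kg).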

[2] = tested on: substance-P induced relaxation of the pig coronary arteries; test: Antagonism of substance-P induced relaxation of the pig coronary arteries; assay type: cell-based; conditions: concentration at which 50% of the response to 10^−9 M substance P was inhibited, 30 minutes incubation, prostaglandin F2a precontracted segments
Procedure, shortened: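 Inverted pig coronary artery segments (endothelium outside) in Krebs-Henseleit, 37 °C, O2/CO2 95/5, precontracted with prostaglandin F2a (10^−5 M); substance P 3×10^−10 and 10^−9 M added cumulatively. Compound incubated 30 min before repeat challenge; IC50 is concentration inhibiting 50% of the relaxation to 10^−9 M substance P.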

Compound	LAD nose [1]	LAD conjunctiva [1]	LAD forepaws [1]	LAD trachea [1]	LAD urinary bladder [1]	melting point	pIC50 ([2]; Sus scrofa, 0.5 h)	pIC50 [2]
O=C(c1cc(C(F)(F)F)cc(C(F)(F)F)c1)N1CC[C@H](N2CCN(Cc3ccccc3)CC2)C[C@@H]1Cc1ccccc1 (racemic) [Compound 16, (±)-cis-1-[3,5-bis(trifluoromethyl)benzoyl]-2-(phenylmethyl)-4-[4-(phenylmethyl)-1-piperazinyl]piperidine]	40.0 mg/kg	40.0 mg/kg	40.0 mg/kg	>40 mg/kg	>40 mg/kg	143.8 °C	–	–
O=C(c1cc(C(F)(F)F)cc(C(F)(F)F)c1)N1CC[C@@H](N2CCN(Cc3ccccc3)CC2)C[C@@H]1Cc1ccccc1 (racemic) [Compound 17, (±)-trans-1-[3,5-bis(trifluoromethyl)benzoyl]-2-(phenylmethyl)-4-[4-(phenylmethyl)-1-piperazinyl]piperidine (E)-2-butenedioate(1:2)]	10.0 mg/kg	10.0 mg/kg	10.0 mg/kg	>40 mg/kg	10.0 mg/kg	240.3 °C	8.77	–
Cc1cc(C)cc(OC(=O)C(c2ccccc2)N2CCN([C@H]3CCN(C(=O)c4cc(C(F)(F)F)cc(C(F)(F)F)c4)[C@@H](Cc4ccccc4)C3)CC2)c1 (mixture of isomers) [Compound 43, (±)-3,5-dimethylphenyl cis-4-[1-[3,5-bis(trifluoromethyl)benzoyl]-2-(phenylmethyl)-4-piperidinyl]-α-phenyl-1-piperazineacetate]	–	–	–	–	–	88.1 °C	8.25	–
Cc1cc(C)cc(NC(=O)CN2CCN(C3CCN(C(=O)c4cc(C(F)(F)F)cc(C(F)(F)F)c4)C(Cc4ccccc4)C3)CC2)c1 (stereo not drawn) [Compound 50]	10.0 mg/kg	10.0 mg/kg	10.0 mg/kg	10.0 mg/kg	>40 mg/kg	–	–	8.61
Cc1cccc(C)c1NC(=O)CN1CCN(C2CCN(C(=O)c3cc(C(F)(F)F)cc(C(F)(F)F)c3)C(Cc3ccccc3)C2)CC1 (stereo not drawn) [Compound 53]	1.25 mg/kg	1.25 mg/kg	1.25 mg/kg	2.50 mg/kg	2.50 mg/kg	–	–	9.46
(+)-(B)-trans-4-[1-[3,5-bis(trifluoromethyl)benzoyl]-2-(phenylmethyl)-4-piperidinyl]-N-(2,6-dimethylphenyl)-1- piperazine acetamide [Compound 27]	0.63 mg/kg	0.63 mg/kg	0.63 mg/kg	0.63 mg/kg	0.63 mg/kg	–	–	9.89
(−)-(A)-trans-4-[1-[3,5-bis(trifluoromethyl) benzoyl]-2-(phenylmethyl)-4-piperidinyl]-N-(2,6-dimethylphenyl)-1-piperazine acetamide [Compound 26]	10.0 mg/kg	20.0 mg/kg	10.0 mg/kg	40.0 mg/kg	20.0 mg/kg	–	–	8.56
